The subject of test [1] is interior spruce somatic embryos. Nature of the test: Plant growth regulators added to nutripriming solutions: ex vitro germination and rooting of interior spruce somatic embryos. It is filed as in vivo, Picea glauca (Moench) Voss x P. engelmannii Parry ex Engelm. From the text: Mature somatic embryos of interior spruce (Picea glauca (Moench) Voss x P. engelmannii Parry ex Engelm.) genotypes 4-2809, 23-2672, and I-1026 were desiccated with the HRHT treatment. Genotype I-1026 was further desiccated at 85% RH for three days, then stored at −20C. Prior to nutripriming, genotype I-1026 was imbibed with a matripriming step which consisted of placing the desiccated embryos onto a screen, and then placing the screen on the surface of an agar substrate gelled with 3% phytogel for 18 hrs. After this imbibition step was completed for genotype I-1026, all three genotypes were nutriprimed for 84 hr in 3% w/v sucrose m24GMD nutripriming solutions amended with the plant growth regulators described in Table 8.1.
After the nutripriming step was completed, the nutriprimed somatic embryos were sown ex vitro into 400-cavity styrofoam miniplug trays filled with peat bound by a polymer (Grow-Tech Inc., San Bautista, Calif.). After sowing, the trays were placed into a non-sterile high-humidity (≧95% RH) germination chamber for one week. In both studies, immediately after the trays containing ex vitro sown nutriprimed embryos were placed into the non-sterile high-humidity germination chamber, they were misted with m24GMD solution containing 3% w/v sucrose until the surfaces of the non-sterile growing substrates were well-wetted, and subsequently at daily intervals for a period of 7 days. After the initial 7-day period in the non-sterile high-humidity germination environment, the trays were moved to a non-sterile misting chamber (RH ranged between 75-90%) for two more weeks of growth under an 18-hour photoperiod of […] PAR with day-night temperatures of 18-23° C. Daily applications of the m24GMD nutrient solution containing 3% w/v sucrose were misted onto the germinants through to the end of the two-week period in the misting chamber. Aseptic techniques or conditions were not used for application of the nutrient solutions, or for the germination and growing environments during the 3-week culture period.
At the end of the three-week germination period, all germinated embryos and seedlings were counted and examined for root initiation. Germination and rooting percentages were calculated based on total number of embryos sown in each replicate. The rooting percentage measures the plant conversion rate since the survived germinants can have perfectly elongated and formed shoot, but without root initiation.

Test [2] shares this test system. The test is described as follows: Plant growth regulators added to horticultural growing substrate after sowing: ex vitro germination and rooting of nutriprimed interior spruce somatic embryos. The following applies: primed. It is filed as in vivo, Picea glauca (Moench) Voss x P. engelmannii Parry ex Engelm. From the text: The second study assessing the effects of plant growth regulators on germination performance of nutriprimed somatic embryos involved additions of plant growth regulators to the horticultural growing substrates after the nutriprimed somatic embryos were sown ex vitro. In this study, somatic embryos from interior spruce genotypes 4-2809, 23-2672, and I-1026 were desiccated and stored as described for the first growth regulator study. Prior to nutripriming, genotype I-1026 was imbibed with a matripriming step which consisted of placing the desiccated embryos onto a screen, and then placing the screen on the surface of an agar substrate gelled with 3% phytogel foe 18 hrs. After this imbibition step was completed for genotype I-1026, all three genotypes were nutriprimed for 84 hr in 3% w/v sucrose m24GMD nutripriming solutions and then sown ex vitro into 400-cavity styrofoam miniplug trays filled with peat bound by a polymer (Grow-Tech Inc., San Bautista, Calif.). After sowing was completed, the nutriprimed embryo received exogenous applications of one of the treatments described in Table 8.3.
After the exogenous application of the plant growth regulator treatments, the blocks were placed onto a non-sterile high-humidity (≧95% RH) germination chamber for one week. Immediately after the trays containing ex vitro sown nutriprimed embryos were placed into the non-sterile high-humidity germination chamber, they were misted with m24GMD solution containing 3% w/v sucrose until the surfaces of the non-sterile growing substrates were well-wetted, and then at daily intervals for a period of 7 days. After the initial 7-day period in the non-sterile high-humidity germination environment, the trays were moved to a non-sterile misting chamber (RH ranged between 75-90%) for two more weeks of growth under an 18-hour photoperiod of […] PAR with day-night temperatures of 18-23° C. Daily applications of the m24GMD nutrient solution containing 3% w/v sucrose were misted onto the germinants through to the end of the two-week period in the misting chamber. Aseptic techniques or conditions were not used for application of the nutrient solutions, nor for the germination and growing environments during the 3-week culture period.
At the end of the three-week germination period, all survived germinants were counted and examined for root initiation. Germination and rooting percentages were calculated based on total number of embryos sown in each replicate.

The mark [3] stands for this setting: genotype 4-2809, HRHT, IBA 0.1 μM in priming solution.
The mark [4] stands for this setting: genotype 4-2809, HRHT, priming solution with no regulator or IBA 0.05 μM alone, + BA 0.01 μM, + BA 0.01 μM + GA4/7 0.01 μM, or + GA4/7 0.05 μM.
[5] abbreviates: genotype 23-2672, HRHT, IBA 0.1 μM in priming solution.
Where [6] appears, read: genotype 23-2672, HRHT, priming solution with no regulator or IBA 0.05 μM alone, + BA 0.01 μM, + BA 0.01 μM + GA4/7 0.01 μM, or + GA4/7 0.05 μM.
Setting [7] is: genotype I-1026, 85% & frozen, IBA 0.1 μM in priming solution.
The mark [8] stands for this setting: genotype I-1026, 85% & frozen, priming solution with no regulator or IBA 0.05 μM alone, + BA 0.01 μM, + BA 0.01 μM + GA4/7 0.01 μM, or + GA4/7 0.05 μM.
Where [9] appears, read: genotype 4-2809, HRHT, IBA 0.2 μM.
[10] abbreviates: genotype 4-2809, HRHT, substrate given no regulator or IBA 0.1 μM alone, + BA 0.02 μM, + BA 0.02 μM + GA4/7 0.2 μM (so in the source), or + GA4/7 0.1 μM.
Where [11] appears, read: genotype 23-2672, HRHT, IBA 0.2 μM.
[12] abbreviates: genotype 23-2672, HRHT, substrate given no regulator or IBA 0.1 μM alone, + BA 0.02 μM, + BA 0.02 μM + GA4/7 0.2 μM (so in the source), or + GA4/7 0.1 μM.
Setting [13] is: genotype I-1026, 85% & frozen, IBA 0.2 μM.
Setting [14] is: genotype I-1026, 85% & frozen, substrate given no regulator or IBA 0.1 μM alone, + BA 0.02 μM, + BA 0.02 μM + GA4/7 0.2 μM (so in the source), or + GA4/7 0.1 μM.

Take `O=C(O)CCCc1c[nH]c2ccccc12` [IBA, indole-butyric-acid]: the Germination % turned out to be 68.8 ± 5.2% in test [1] (setting [3]); 92.5 ± 6.0% in test [1] (setting [4]); 82.5 ± 9.7% in test [1] (setting [5]); 90.0 ± 3.5% in test [1] (setting [6]); 88.8 ± 6.6% in test [1] (setting [7]); 93.8 ± 2.4% in test [1] (setting [8]). Besides, the Germination % in test [2] (setting [9]) is 97.5 ± 1.4%; in test [2] (setting [10]) it was 92.5 ± 7.5%; in test [2] (setting [11]), 72.5 ± 10.9%; in test [2] (setting [12]), 72.5 ± 11. %; in test [2] (setting [13]) it was 80.0 ± 6.8%; in test [2] (setting [14]), 91.3 ± 5.5%. For the same compound, the Rooting % in test [1] (setting [3]) turned out to be 51.3 ± 4.3%; in test [1] (setting [4]), 82.5 ± 6.0%; in test [1] (setting [5]), 72.5 ± 6.3%; in test [1] (setting [6]) it was 71.3 ± 6.6%; in test [1] (setting [7]) it was 58.8 ± 5.9%; in test [1] (setting [8]), 66.3 ± 4.7%. The Rooting % was found to be 78.8 ± 7.5% in test [2] (setting [9]); 75.0 ± 10.2% in test [2] (setting [10]); 67.5 ± 10.1% in test [2] (setting [11]); 61.3 ± 13.4% in test [2] (setting [12]); 65.0 ± 5.4% in test [2] (setting [13]); 66.3 ± 3.7% in test [2] (setting [14]).

The record behind these values is US6689609B1, “Enhancing germination of plant somatic embryos by priming” (Cellfor Inc., priority 1999, dated 2004).
